Laboratory results published in patent publication US8957215B2, “Heteroaryl substituted benzothiazoles” (Navidea Biopharmaceuticals, Inc., priority 2006, dated 2015).
Read-outs that look alike come from different tables or passages of the source. Values belong to the molecule of their own block, whether it stands above or below them.

Key:
[1] = during the first 5-10 min, reference radioligands; cited from earlier work
synthetic Aβ 1-40 [2] = target: T1, synthetic Aβ 1-40 (Homo sapiens, UniProt P05067); test: Competition binding assay with [^3H]PIB as radioligand
T1 construct: using synthetic Aβ 1-40 in 2.7 nM of [^3H]PIB
T1 sequence (P05067 672-711 limits assumed): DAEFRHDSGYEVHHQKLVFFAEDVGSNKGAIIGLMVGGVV
Method: (§1) Competition binding was performed in 384-well FB filter plates using synthetic Aβ 1-40 in 2.7 nM of [^3H]PIB (or another ^3H-labeled radioligand when so mentioned) in phosphate buffer at pH 7.5, by adding various concentrations of non-radioactive compounds originally dissolved in DMSO. The binding mixture was incubated for 30 min at room temperature, followed by vacuum filtration, and subsequentially by washing twice with 1% Triton-X100. Scintillation fluid was thereafter added to the collected Aβ 1-40 on the filter plate, and the activity of the bound remaining radioligand ([^3H]PIB or another ^3H-labeled radioligand) was measured using 1450 Microbeta from PerkinElmer.
Specific binding was determined according to the competition binding assay described herein. The determined IC50's in the competition binding assays (using [^3H]PIB as radioligand) of 5 compounds of the present invention are shown in Table 1. Results (activity of remaining [^3H]PIB versus increasing concentration of non-labeled compounds) from typical competition assay experiments are exemplified in FIG. 1. In a similar way, competition studies with ^3H-labeled heteroaryl substituted benzthiazole derivates of the present invention were also conducted. Such results, from a typical competition study, are examplified in FIG. 2. PIB and 2-[6-(methylamino)pyridin-3-yl]-1,3-benzothiazol-6-ol (a novel compound of the present invention) both displaced [N-methyl-^3H3]-2-(6-methylamino-pyridin-3-yl)-benzothiazol-6-ol (a ^3H-labeled compound of the present invention). The binding of [N-methyl-^3H3]-2-(6-methylamino-pyridin-3-yl)-benzothiazol-6-ol (example 32) to Aβ1-40 fibrils, was reversible as evident from the dissociation experiment exemplified in FIG. 3.

[3] = In vivo rat brain entry study; conditions: i.v.
Method: Brain exposure after i.v administration was determined in rat brains using cassette dosing. Four different compounds were dosed followed by plasma and brain sampling at 2 and 30 minutes after the dosing. 2 to 30 min brain concentration ratios, and percentage of total of injected dose after 2 mins found in brain, were calculated. The compound concentrations were determined by analysis of protein precipitated plasma samples by reversed-phase liquid chromatography coupled to a electrospray tandem mass spectrometer.
FIG. 4. Brain and plasma concentration at 2 and 30 minutes after i.v. administration in rat of PIB (upper graph “A”), and 2-[6-(methylamino)pyridin-3-yl]-1,3-benzothiazol-6-ol (lower graph “B”), a compound of the present intervention (example 27).

[4] = target: T2, human synthetic Aβ 1-40 fibrils (Homo sapiens, UniProt P05067); test: Dissociation experiment; format: binding; conditions: FIG. 3
T2 construct: 2 μM human synthetic Aβ 1-40 fibrils in phosphate buffer pH 7.5
T2 sequence (P05067 672-711 limits assumed): as above
Method: Dissociation experiments were performed in 96-well polypropylene deep well plates. 2 μM human synthetic Aβ 1-40 fibrils in phosphate buffer pH 7.5, or buffer alone as control, was incubated with 9 nM of a ^3H-labeled radioligand of the present invention for 4 h at room temperature. Dissociation was started at different time points, by the addition of an equal volume of a non-labeled compound of the present invention, or a reference compound (10 μM), in 4% DMSO in phosphate buffer at pH 7.5. The radioactivity still bound to the Aβ 1-40 fibrils at the end of the incubation was detected on FB filters after filtration in a Brandel apparatus using a wash buffer containing 0.1% Triton-X100.
FIG. 3. Example of a dissociation experiment: Dissociation of [N-methyl-^3H3]-2-(6-methylamino-pyridin-3-yl)-benzothiazol-6-ol (example 32) from Aβ1-40 fibrils over time.

[5] = system: amyloid plaques in post-mortem human AD brains; test: Binding to amyloid plaques in post-mortem human AD brain sections
Method: (§2) Slide-mounted brain sections (10 μm) from APP/PS1 transgenic mice were collected at the level of the lateral septum (bregma+0.98 mm; see Paxinos and Franklin, 2001). Human cortical sections (7 μm) from two AD patients and 1 control subject were obtained from a Dutch tissue bank.
(§3) Sections were preincubated for 30 minutes at room temperature in 50 mM Tris HCl (pH 7.4) in the presence or absence of 1 μM PIB. Sections were transferred to buffer containing tritium-labeled compound (1 nM) with or without PIB (1 μM) and incubated for 30 minutes at room temperature. Incubation was terminated by 3 consecutive 10 minute rinses in buffer (1° C.) followed by a rapid rinse in distilled water (1° C.). Sections were air dried in front of a fan. Dried sections and plastic tritium standards (Amersham microscales-^3H) were apposed to phosphoimage plates (Fuji) in a cassette and exposed overnight. The following morning, the image plates were processed with a Fuji phosphoimager (BAS 2500) using BAS Reader software. The resulting image was converted to TIF format using Aida software, optimized with Adobe Photoshop (v 8.0) and quantified using Image-J (NIH). Data were statistically analyzed using Excel.

[6] = system: amyloid plaques in APP/PS1 transgenic mice brain sections; test: Binding to amyloid plaques in APP/PS1 transgenic mouse brain sections; conditions: 1 nM tritium-labeled compound
Method: as §2, §3

[7] = system: amyloid plaques in APP/PS1 mouse brain; format: in vivo
Method: Naïve, awake mice were restrained and intravenously infused via the tail vein with either a tritium labeled compound of the present invention, or a tritium labeled reference compound via the tail vein. In one type of experiment, the animals were rapidly anesthetized with isofluorane and decapitated twenty minutes after compound administration (1 mCi). In another type of experiment, mice were given 1 mCi of a compound and were anesthetized and decapitated at a timepoint of 20, 40 or 80 minutes after administration. Brains were removed and frozen with powdered dry ice. Brains were sectioned (10 μm) in the coronal plane at the level of the striatum with a cryostat, thaw-mounted onto superfrost microscope slides and air-dried.
Methods designed to optimize the imaging of bound ligand after in vivo administration were thereafter employed. To selectively reduce unbound radioactivity levels, one-half of the sections were rinsed (3×10 minutes) in cold (1° C.) Tris buffer (50 mM, pH7.4) followed by a rapid rinse in cold (1° C.) deionized water. Sections were then air dried in front of a fan. Rinsed as well as unrinsed sections and tritium standards were exposed to phosphoimage plates (Fuji). Phosphoimage plates were processed with a Fujifilm BAS-2500 phosphoimager using BAS Reader software.

synthetic Aβ 1-40 [8] = target: T1, synthetic Aβ 1-40; test: Competition binding assay with [N-methyl-^3H3]-2-(6-methylamino-pyridin-3-yl)-benzothiazol-6-ol as radioligand; conditions: ^3H-labeled example 32 as radioligand, FIG. 2
Method: as §1
Specific binding was determined according to the competition binding assay described herein. The determined IC50's in the competition binding assays (using [^3H]PIB as radioligand) of 5 compounds of the present invention are shown in Table 1. Results (activity of remaining [^3H]PIB versus increasing concentration of non-labeled compounds) from typical competition assay experiments are exemplified in FIG. 1. In a similar way, competition studies with ^3H-labeled heteroaryl substituted benzthiazole derivates of the present invention were also conducted. Such results, from a typical competition study, are examplified in FIG. 2. […]

[9] = Whole body PET measurement in monkey; format: in vivo
Method: Whole body PET-measurement was performed in one monkey. A sterile physiological phosphate buffer (pH=7.4) solution containing 51 MBq of [^11C]PIB in the first measurement, and 57 MBq of a [^11C]-labelled compound of the present invention in the second measurement, was injected as a bolus into a sural vein over a period of 5 seconds with simultaneous start of PET-data acquisition that lasted for 87 min. The time between radioligand injections was 2 h. PET measurements were assessed visually by creating planar maximum intensity projection images of decay uncorrected data and also converting decay corrected images to ones containing parts-per-million (ppm) values of the total injected radioactivity.

[10] = Brain PET study in monkey; format: in vivo
Method: The monkey PET study aimed to assess and compare a [^11C]-labelled compound of this invention to [^11C]PIB regarding measures of brain availability, non-specific binding in the brain, whole body biodistribution, elimination and exploration of regional differences in uptake. Five brain PET measurements were performed in three monkeys under anesthesia. In each PET-measurement a sterile physiological phosphate buffer (pH=7.4) solution containing 52-55 MBq of either a [^11C]-labelled compound of this invention, or [^11C]PIB, was injected as a bolus into a sural vein over a period of 5 seconds with simultaneous start of PET-data acquisition. Radioactivity in brain was measured continuously for 93 minutes. Only [^11C]PIB measurement was performed in the first monkey. In the other two monkeys a [^11C]-labelled compound of the present invention was measured first and [^11C]PIB was administered in a subsequent measurement. The time between radioligand injections was approx. 2 h. PET measurements were evaluated with respect to the time-activity curve for the whole brain expressed as percent injected radioactivity dose.

IC50 (synthetic Aβ 1-40 [2]): 176 nM
SMILES: CN1CCN(c2ccc(-c3nc4ccc(O)cc4s3)cn2)CC1 [Example 6, 2-[6-(4-Methylpiperazin-1-yl)pyridin-3-yl]-1,3-benzothiazol-6-ol Acetate]

IC50 (synthetic Aβ 1-40 [2]): 170 nM
SMILES: COc1ccc(-c2nc3ccc(C(N)=O)cc3s2)cn1 [Example 9, 2-(6-Methoxypyridin-3-yl)-1,3-benzothiazole-6-carboxamide]

IC50 (synthetic Aβ 1-40 [2]): 186 nM
SMILES: CC(=O)Nc1ccc2nc(-c3ccc(N4CCN(C)CC4)nc3)sc2c1 [Example 15, N-{2-[6-(4-Methylpiperazin-1-yl)pyridin-3-yl]-1,3-benzothiazol-6-yl}acetamide]

IC50 (synthetic Aβ 1-40 [2]): 58 nM
SMILES: CNc1ccc(-c2nc3ccc(OC)cc3s2)cn1 [Example 25, 5-(6-Methoxy-1,3-benzothiazol-2-yl)-N-methylpyridin-2-amine]

2 minute to 30 minute brain concentration ratio [3]: > 15
brain uptake value ([3]; 2 min time point): 1 % of the injected dose
SMILES: CNc1ccc(-c2nc3ccc(O)cc3s2)cn1 [Example 27, 2-[6-(Methylamino)pyridin-3-yl]-1,3-benzothiazol-6-ol]

displacement of [N-methyl-^3H3]-2-(6-methylamino-pyridin-3-yl)-benzothiazol-6-ol (synthetic Aβ 1-40 [8]): displaced
SMILES: CNc1ccc(-c2nc3ccc(O)cc3s2)cc1 [PIB]

The remaining lines, values behind:

SMILES: CCN1CCC[C@H]1CNC(=O)c1c(O)c(Cl)cc(Cl)c1O[11CH3] (racemic) [[^11C]raclopride]
fraction of the total injected radioactivity present in the brain [1]: 1-2%

SMILES: [3H]C([3H])([3H])Nc1ccc(-c2nc3ccc(O)cc3s2)cn1 [Example 32, [N-Methyl-^3H3]-2-(6-Methylamino-pyridin-3-yl)-benzothiazol-6-ol]
reversibility of binding to Aβ1-40 fibrils [4]: reversible
levels of nonspecific binding compared to [^3H]PIB ([5]; human cortical sections): substantially reduced
labeling of dense core plaques ([5]; human cortical sections, 1 nM tritium-labeled compound): labeled dense core plaques
specific binding levels greater than binding observed with [^3H]PIB ([5]; superficial gray layers of human cortex): approximately 40%
labeling of dense core plaques [6]: labeled dense core plaques
cortical plaque labeling in rinsed tissue ([7]; 20 minutes after administration): highest
cortical plaque labeling in rinsed tissue ([7]; 80 minutes after administration): barely detectable
labeling of cortical structures after in vivo administration ([7]; APP/PS1 mice, decapitation 20 minutes after administration): labeled cortical structures
effect of in vitro rinse on levels in corpus callosum ([7]; corpus callosum (white matter)): dramatically reduced
reduction of nonspecific binding by in vitro rinse ([7]; striatum (gray matter)): 78.5%

SMILES: [11CH3]Nc1ccc(-c2nc3ccc(O)cc3s2)cc1 [[^11C]PIB, reference compound]
elimination routes [9]: urinary excretion and hepatobiliary secretion

SMILES: [11CH3]Nc1ccc(-c2nc3ccc(O)cc3s2)cn1 [^11C-Example 1, [N-Methyl-^11C]-2-(6-Methylamino-pyridin-3-yl)-benzothiazol-6-ol]
brain concentration after the peak ([10]; monkey): declined rapidly
unspecific binding as compared to [^11C]PIB ([10]; monkey brain, time points of relevance for PET-detection): significantly lower
brain exposure ([10]; monkey, FIG. 12): 1-3 % of total injected radioactivity
time of peak brain uptake ([10]; monkey, after injection): first minute
elimination as compared to [^11C]PIB [9]: faster elimination
elimination routes [9]: urinary excretion and hepatobiliary secretion
